From patent US10085953B2, “Skin cancer treatment” (Avexxin AS, priority 2014, dated 2018) come the findings set out here.

“Also recorded” adds a separate entry of the source.

This test deals with EGF-induced AA release in HaCaT keratinocytes. Nature of the test: [3H]-Arachidonic acid release assay in EGF-stimulated HaCaT keratinocytes. Format: cell-based, human. The settings on record: EGF 100 ng/ml 1 h, dose-dependent, FIG. 2. The protocol:
The spontaneously immortalized skin keratinocyte cell line HaCaT (kindly provided by Prof. N. Fusenig, Heidelberg, Deutsches Krebsforschungszentrum, Germany) was cultured in DMEM supplemented with 10% (v/v) FBS, 0.3 mg/ml glutamine, and 0.1 mg/ml gentamicin at 37° C. with 5% CO2 in a humidified atmosphere. For release assays, flow cytometry cell cycle analysis and in vitro cPLA2α activity assay, cells were grown in 48 well trays or in 6 well trays, respectively. Cells were cultivated until 2 days post-confluency; serum starved in DMEM/0.5% FBS overnight and processed at day 3 post-confluence to ensure differentiation. Experiments were performed in DMEM/0.5% FBS. Untreated cells without inducing agents were included for unstimulated control. […] Cells were lysed and 200 μg of total protein was analyzed for cPLA2α activity as described. […] Following washing three times with Tris-buffered saline containing […], immunoreactive proteins were detected by horseradish peroxidase-conjugated secondary antibody (1 hour at room temperature) and SuperSignal® West Femto Maximum Sensivity substrate. Blots were analyzed by the BioRad Image Lab software, and target protein band intensities were normalized to α-tubulin. […] After labelling, the cells were washed twice with phosphate-buffered saline (PBS) containing fatty acid free BSA (2 mg/ml) (fBSA) in order to remove unincorporated radioactivity. […]

With `CC/C=C\C/C=C\C/C=C\C/C=C\C/C=C\CCSCC(=O)C(F)(F)F` [AVX002], the “effect on EGF-induced AA-release” value is on record as “completely abrogated; also recorded: reduced AA-release to below basal release in a dose-dependent manner”.
